Assay results: publication PMC4860837, “Structural basis for Sfm1 functioning as a protein arginine methyltransferase” (Cell Discovery, 2015)

Target: T1, Sfm1 (Saccharomyces cerevisiae, UniProt Q12314)
T1 construct: full length, residues 1-213; C-terminal His6 tag (crystal) or N-terminal GST tag (activity assay), E. coli BL21(DE3); monomer
Assay: X-ray crystallography, […] Å
Format: binding
Settings: co-crystallised with SAH ([…] molar ratio), pH […] °C; cofactor pocket of trefoil knot

Nc1ncnc2c1ncn2[C@@H]1O[C@H](CSCC[C@H](N)C(=O)O)[C@@H](O)[C@H]1O [SAH]
X-ray crystallography, 2.5 Å: In the SAH-bound Sfm1 structure, SAH is clearly defined in the electron density map
